From patent US5391800A, “Method for inhibition of cell motility by sphingosine-1-phosphate, its derivatives and mimetics and method of synthesizing sphingosine-1-phosphate and its derivatives” (The Biomembrane Institute, priority 1993, dated 1995)

Tests used:
[1] = tested on: B16/F1 cells; assay: Phagokinetic activity of B16/F1 cells on gold sol-coated plates; type: cell-based, mouse; conditions: FIGS. 11A-F, SPN-1-P at 1.0 or 0.1 μM
Description: Phagokinetic activity is measured by the ability of cells to ingest foreign particles while moving. Cell motility can be estimated as the area of a phagokinetic track on gold sol particle-coated plates as previously described {Albrecht-Buehler, Cell, 11:395 (1977)}. A uniform coating of gold particles is prepared on glass coverslips precoated with bovine serum albumin, and coverslips are rinsed repeatedly to remove non-adhering or loosely-adhering gold particles. Freshly-prepared neutrophils or tumor cells detached from culture are placed in a Petri dish containing the gold sol-coated plate, and incubated for about 2 hours (for human neutrophils) or about 18 hours (for tumor cells). The coverslips are fixed for 1 hour in a 4% formaldehyde solution in phosphate-buffered saline (PBS) and mounted on microscope slides. The phagokinetic tracks are observed on a television connected to a light microscope (Nikon, Tokyo, Japan). Tracks on the television are transferred to translucent sheets, which are then photocopied. Phagokinetic activity is quantitated by cutting and weighing the swept area in the copy.
Cell motility was estimated as the area of phagokinetic track on gold sol particle-coated plates as previously described {Albrecht-Buehler, Cell, 11:395 (1977)}. […] Phagokinetic activity was quantitated by cutting and weighing the swept area in the copy. […]

[2] = tested on: mouse 3T3 cell; conditions: literature; cited from earlier work
[3] = tested on: B16/F10 cells; assay: Chemotactic motility of B16/F10 cells through MATRI-GEL-coated transwell filter; type: cell-based, mouse
Description: (§1) The assays for determining chemotactic cell motility and chemoinvasion can be performed using transwell plates with a polycarbonate membrane filter (pore size 8 μm) (Costar Scientific, Cambridge, Mass.). Aliguots, e.g., 50 μl, of an aqueous solution of MATRI-GEL (Collaborative Research, Bedford, Mass.) containing SPN-1-P or other inhibitor (e.g., 20 μg/ml for chemotactic motility assay or 200 μg/ml for chemoinvasion assay), is added to each well and dried overnight. The filter is then fitted onto the lower chamber plate. The lower chamber can contain conditioned medium (CM) (i.e., medium used for splenic stromal cell culture, and containing motility factor secreted by these cells), e.g., 0.6 ml, with or without SPN-1-P or other inhibitor. To the upper chamber is added, e.g., about 100 μl, of cell suspension (5×10^4 cells/ml for invasion assay, 5×10^5 cells/ml for motility assay), which is then incubated in 5% CO2 at 37° C. for 70-72 hours (invasion assay) or 20 hours (motility assay). After incubation, cells remaining in the upper chamber are wiped off with a cotton swab, and cells which had migrated to the lower chamber side of the filter are fixed in methanol for 30 seconds and stained with 0.05% toluidine blue. The filter is removed, the stain is solubilized in 10% acetic acid (e.g., 0.1 ml for invasion assay, 0.5 ml for motility assay), and color intensity (optical density) is quantitated by ELISA reading at 630 nm. Using SPN-1-P, a linear relationship was observed between cell number and toluidine blue optical density (FIG. 7).
(§2) Assays were performed using transwell plates with polycarbonate membrane filters (pore size 8 μm) (Costar Scientific, Cambridge, Mass.). 50 μl aliguots of an aqueous solution of MATRI-GEL (Collaborative Research, Bedford, Mass.) containing 20 μg/ml (for chemotactic motility assay) or 200 μg/ml (for chemoinvasion assay) were added to each well and dried overnight. The filter was fitted onto the lower chamber plate. The lower chamber contained 0.6 ml conditioned medium (CM) (i.e., medium used for splenic stromal cell culture, and containing motility factor secreted by these cells) with or without the suspected inhibitor. To the upper chamber was added 100 μl of cell suspension (5×10^4 cells/ml for invasion assay, 5×10^5 cells/ml for motility assay), which was then incubated in 5% CO2 at 37° C. for 70-72 hours (invasion assay) or 20 hours (motility assay). After incubation, cells remaining in the upper chamber were wiped off with a cotton swab, and cells which had migrated to the lower chamber side of the filter were fixed in methanol for 30 seconds and stained with 0.05% toluidine blue. The filter was removed, the stain was solubilized in 10% acetic acid (0.1 ml for invasion assay, 0.5 ml for motility assay), and color intensity (optical density) was quantitated by ELISA reading at 630 nm. A linear relationship was observed between cell number and toluidine blue optical density (FIG. 7.).
(§3) In experiments with different quantities of MATRI-GEL, cell migration through transwell filter was maximal with 1 μg/well was applied, and when CM was used (FIG. 8). Therefore, chemotactic cell motility, as affected by various SPN derivatives, was assayed under these conditions.
(§4) *Mean ± S.E. of percent relative to control (n = 4). Actual O.D. value
(§5) and 0.147 (HT1080). 6 × 10^4 cells were placed on a transwell
(§6) filter coated with 1.0 μg MATRIGEL in the upper chamber, and cultured
(§7) for 18 hours in the presence of CM and SPN1-P in the lower chamber.

[4] = tested on: Balb/c 3T3 fibroblasts; assay: Chemotactic motility of Balb/c 3T3 fibroblasts through MATRI-GEL-coated transwell filter; type: cell-based; conditions: Mus musculus, 18 hours, relative to control, mean ± S.E., n = 4
Description: as §1, §2, §3, §4, §5, §6, §7

[5] = tested on: human fibrosarcoma HT1080 cells; assay: Chemotactic motility of fibrosarcoma HT1080 cells through MATRI-GEL-coated transwell filter; type: cell-based
Description: as §1, §2, §3, §4, §5, §6, §7

In the case of `CCCCCCCCCCCCC/C=C/[C@@H](O)[C@@H](N)CO` [SPN, sphingosine], the “Area cleared by tumor cells” value [1] is listed as “reduced the area cleared by tumor cells” and the “Mouse 3T3 cell growth” value [2] is listed as “stimulation of mouse 3T3 cell growth”.
With `CCCCCCCCCCCCC/C=C/[C@@H](O)[C@@H](N)COP(=O)(O)O` [SPN-1-P, sphingosine-1-phosphate] the “Area cleared by tumor cells” value [1] was “greatly reduced”, the activity at 0.001 µM ([3]; Mus musculus, B16-F10, F10, 0.001 μM, 18 hours, relative to control, mean ± S.E., n = 4) was 96 ± 21% and the activity at 0.01 µM ([3]; Mus musculus, B16-F10, F10, 0.01 μM, 18 hours, relative to control, mean ± S.E., n = 4) was 10 ± 4%. The activity at 0.1 µM ([3]; Mus musculus, B16-F10, F10, 0.1 μM, 18 hours, relative to control, mean ± S.E., n = 4) was 4 ± 2%, the activity at 1 µM ([3]; Mus musculus, B16-F10, F10, 1.0 μM, 18 hours, relative to control, mean ± S.E., n = 4) was 4 ± 1% and the “Susceptibility of B16/F10 cells (chemotactic motility)” value ([3]; Table V, in words) was “high”. It also gave an activity at 0.001 µM ([4]; BALB/c3T3, 0.001 μM) of 119 ± 9%, an activity at 0.01 µM ([4]; BALB/c3T3, 0.01 μM) of 125 ± 5% and an activity at 0.1 µM ([4]; BALB/c3T3, 0.1 μM) of 101 ± 10%. It also gave an activity at 1 µM ([4]; BALB/c3T3, 1.0 μM) of 40 ± 1%, an activity at 5 µM ([4]; BALB/c3T3, 5.0 μM) of 11 ± 1% and an activity at 0.001 µM ([5]; Homo sapiens, HT-1080, HT1080, 0.001 μM, 18 hours, relative to control, mean ± S.E., n = 4) of 100 ± 21%. It also gave an activity at 0.01 µM ([5]; Homo sapiens, HT-1080, HT1080, 0.01 μM, 18 hours, relative to control, mean ± S.E., n = 4) of 100 ± 30%, an activity at 0.1 µM ([5]; Homo sapiens, HT-1080, HT1080, 0.1 μM, 18 hours, relative to control, mean ± S.E., n = 4) of 115 ± 35% and an activity at 1 µM ([5]; Homo sapiens, HT-1080, HT1080, 1.0 μM, 18 hours, relative to control, mean ± S.E., n = 4) of 105 ± 14%. The activity at 5 µM ([5]; Homo sapiens, HT-1080, HT1080, 5.0 μM, 18 hours, relative to control, mean ± S.E., n = 4) was 64 ± 4% and the “Susceptibility of human fibrosarcoma HT1080 cells (chemotactic motility)” value ([5]; Table V, in words) was “low”.
